Test results published in patent US8691822B2, “Dihydropteridinone derivatives, preparation process and pharmaceutical use thereof” (Jiangsu Hengrui Medicine Co., Ltd., priority 2009, dated 2014).

System: human cervix cancer cells Hela
Test: Plk Cell Proliferation Inhibition Assay (CCK8, 72 hours)
Assay type: cell-based
Conditions: Hela cells highly expressing Plk
From the text: The following in vitro assay is to determine the activity of the compounds of the present invention for inhibiting the proliferation of human cervix cancer cells Hela, which has high expression of Plk.
The in vitro cellular assay described here is to determine the activity of the tested compounds for inhibiting the proliferation of cancer cells, which has high expression of Plk. The activity is represented by the […]. The general procedures for the assay are given as follows: The Hela cells highly expressing Plk (Institute of biochemistry and cell biology) were seeded to 96-well cell culture plate at a suitable concentration (exp 3000 cells/ml medium). The cells then were cultured in carbon dioxide (CO2) incubator and grew overnight. Then, the cell culture medium was replaced by fresh one with tested compounds added in it at serial concentrations (general 7 to 9 concentrations). Then the cells were put back to the incubator and cultured for continuous 72 hours. 72 hours later, the activity of the tested compounds for inhibiting the cell proliferation was determined by using CCK8 (cell counting kit-8, Dojindo, NO:CK04) method. IC50 value on tested cells were calculated by the data of inhibition rates of serial concentrations of the tested compounds.

IC50 | SMILES
8 nM | CC[C@@H]1C(=O)N(C)c2cnc(Nc3ccc(C(=O)NCC4CN(C)CCO4)c4c3OCC4)nc2N1C1CCCC1 (stereo partly drawn) [Example 2, 7-[[(7R)-8-cyclopentyl-7-ethyl-5-methyl-6-oxo-7H-pteridin-2-yl]amino]-N-[(4-methylmorpholin-2-yl)methyl]-2,3-dihydrobenzofuran-4-carboxamide]
2 nM | CC[C@@H]1C(=O)N(C)c2cnc(Nc3ccc(C(=O)NC4CCN(C)CC4)c4c3OC(C)(C)C4)nc2N1C1CCCC1 [Example 4, 7-[[(7R)-8-Cyclopentyl-7-ethyl-5-methyl-6-oxo-7H-pteridin-2-yl]amino]-2,2-dimethyl-N-(1-methyl-4-piperidyl)-3H-benzofuran-4-carboxamide]
1 nM | CC[C@@H]1C(=O)N(C)c2cnc(Nc3ccc(C(=O)N[C@@H]4C[C@@H]5CN(C)C[C@@H]5C4)c4c3OCC4)nc2N1C1CCCC1 [Example 5]
2 nM | CC[C@@H]1C(=O)N(C)c2cnc(Nc3ccc(C(=O)N[C@@H]4C[C@@H]5CN(C)C[C@@H]5C4)c4c3OC(C)(C)C4)nc2N1C1CCCC1 [Example 6, (cis-exo)-N-[2-Methyl-3,3a,4,5,6,6a-hexahydro-1H-cyclopenta[c]pyrrol-5-yl]-7-[[(7R)-8-cyclopentyl-7-ethyl-5-methyl-6-oxo-7H-pteridin-2-yl]amino]-2,2-dimethyl-3H-benzofuran-4-carboxamide]
3 nM | CC[C@@H]1C(=O)N(C)c2cnc(Nc3ccc(C(=O)NC[C@H](O)CN4CCN(CC5CC5)CC4)c4c3OCC4)nc2N1C1CCCC1 [Example 7, 7-[[(7R)-8-Cyclopentyl-7-ethyl-5-methyl-6-oxo-7H-pteridin-2-yl]amino]-N-[(2S)-3-[4-(cyclopropylmethyl)piperazin-1-yl]-2-hydroxy-propyl]-2,3-dihydrobenzofuran-4-carboxamide]
3 nM | CC[C@@H]1C(=O)N(C)c2cnc(Nc3ccc(C(=O)NC[C@H](O)CN4CCN(C)CC4)c4c3OCC4)nc2N1C1CCCC1 [Example 8, 7-[[(7R)-8-Cyclopentyl-7-ethyl-5-methyl-6-oxo-7H-pteridin-2-yl]amino]-N-[(2S)-2-hydroxy-3-(4-methylpiperazin-1-yl)propyl]-2,3-dihydrobenzofuran-4-carboxamide]
2 nM | CC[C@@H]1C(=O)N(C)c2cnc(Nc3ccc(C(=O)N[C@H]4C[C@@H]5CN(C)C[C@@H]5C4)c4c3OC(C)(C)C4)nc2N1C1CCCC1 [Example 9, (cis-endo)-N-[2-Methyl-3,3α,4,5,6,6α-hexahydro-1H-cyclopenta[c]pyrrol-5-yl]-7-[[(7R)-8-cyclopentyl-7-ethyl-5-methyl-6-oxo-7H-pteridin-2-yl]amino]-2,2-dimethyl-3H-benzofuran-4-carboxamide]
5 nM | CC[C@@H]1C(=O)N(C)c2cnc(Nc3ccc(C(=O)N[C@H]4C[C@@H]5CN(CC6CC6)C[C@@H]5C4)c4c3OC(C)(C)C4)nc2N1C1CCCC1 [Example 10, N-[(cis-endo)-2-(Cyclopropylmethyl)-3,3a,4,5,6,6a-hexahydro-1H-cyclopenta[c]pyrrol-5-yl]-7-[[(7R)-8-cyclopentyl-7-ethyl-5-methyl-6-oxo-7H-pteridin-2-yl]amino]-2,2-dimethyl-3H-benzofuran-4-carboxamide]
1 nM | CC[C@@H]1C(=O)N(C)c2cnc(Nc3ccc(C(=O)N[C@H]4C[C@@H]5CN(C)C[C@@H]5C4)c4c3OCC4)nc2N1C1CCCC1 [Example 11, (cis-endo)-N-[2-Methyl-3,3a,4,5,6,6a-hexahydro-1H-cyclopenta[c]pyrrol-5-yl]-7-[[(7R)-8-cyclopentyl-7-ethyl-5-methyl-6-oxo-7H-pteridin-2-yl]amino]-2,3-dihydrobenzofuran-4-carboxamide]
0.8 nM | CC[C@@H]1C(=O)N(C)c2cnc(Nc3ccc(C(=O)N[C@H]4CC[C@@H](N5CCN(CC6CC6)CC5)CC4)c4c3OCC4)nc2N1C1CCCC1 [Example 12, 7-[[(7R)-8-Cyclopentyl-7-ethyl-5-methyl-6-oxo-7H-pteridin-2-yl]amino]-N-[(cis)-4-[4-(cyclopropylmethyl)piperazin-1-yl]cyclohexyl]-2,3-dihydrobenzofuran-4-carboxamide]
1 nM | CC[C@@H]1C(=O)N(C)c2cnc(Nc3ccc(C(=O)N[C@H]4C[C@@H]5CN(CC6CC6)C[C@@H]5C4)c4c3OCC4)nc2N1C1CCCC1 [Example 13, (cis-endo)-N-[2-(Cyclopropylmethyl)-3,3a,4,5,6,6a-hexahydro-1H-cyclopenta[c]pyrrol-5-yl]-7-[[(7R)-8-cyclopentyl-7-ethyl-5-methyl-6-oxo-7H-pteridin-2-yl]amino]-2,3-dihydrobenzofuran-4-carboxamide]
1 nM | CC[C@@H]1C(=O)N(C)c2cnc(Nc3ccc(C(=O)N[C@@H]4C[C@H]5CCN(C)C[C@H]5C4)c4c3OCC4)nc2N1C1CCCC1 [Example 14, (cis-endo)-N-[2-Methyl-1,3,3a,4,5,6,7,7a-octahydrocyclopenta[c]pyridin-6-yl]-7-[[(7R)-8-cyclopentyl-7-ethyl-5-methyl-6-oxo-7H-pteridin-2-yl]amino]-2,3-dihydrobenzofuran-4-carboxamide]
3 nM | CC[C@@H]1C(=O)N(C)c2cnc(Nc3ccc(C(=O)NC[C@@H]4CN(C)CCO4)c4c3OCC4)nc2N1C1CCCC1 [Example 15, 7-[[(7R)-8-Cyclopentyl-7-ethyl-5-methyl-6-oxo-7H-pteridin-2-yl]amino]-N-[[(2R)-4-methylmorpholin-2-yl]methyl]-2,3-dihydrobenzofuran-4-carboxamide]
30 nM | CC[C@@H]1C(=O)N(C)c2cnc(Nc3ccc(C(=O)N[C@H]4CC[C@H](N5CCN(CC6CC6)CC5)CC4)c4c3OC(C)(C)C4)nc2N1C1CCCC1 [Example 16, 7-[[(7R)-8-Cyclopentyl-7-ethyl-5-methyl-6-oxo-7H-pteridin-2-yl]amino]-N-[(trans)-4-[4-(cyclopropylmethyl)piperazin-1-yl]cyclohexyl]-2,2-dimethyl-3H-benzofuran-4-carboxamide]
10 nM | CC[C@@H]1C(=O)N(C)c2cnc(Nc3ccc(C(=O)N[C@H]4CC[C@H](N5CCN(C)CC5)CC4)c4c3OC(C)(C)C4)nc2N1C1CCCC1 [Example 17, 7-[[(7R)-8-Cyclopentyl-7-ethyl-5-methyl-6-oxo-7H-pteridin-2-yl]amino]-2,2-dimethyl-N-[(trans)-4-(4-methylpiperazin-1-yl)cyclohexyl]-3H-benzofuran-4-carboxamide]
3 nM | CC[C@@H]1C(=O)N(C)c2cnc(Nc3ccc(C(=O)N[C@H]4CC[C@H](N5CCN(C)CC5)CC4)c4c3OCC4)nc2N1C1CCCC1 [Example 19, 7-[[(7R)-8-Cyclopentyl-7-ethyl-5-methyl-6-oxo-7H-pteridin-2-yl]amino]-N-[(trans)-4-(4-methylpiperazin-1-yl)cyclohexyl]-2,3-dihydrobenzofuran-4-carboxamide]
8 nM | CC[C@@H]1C(=O)N(C)c2cnc(Nc3ccc(C(=O)NC[C@@H](O)CN4CCN(C)CC4)c4c3OC(C)(C)C4)nc2N1C1CCCC1 [Example 20, 7-[[(7R)-8-Cyclopentyl-7-ethyl-5-methyl-6-oxo-7H-pteridin-2-yl]amino]-N-[(2R)-3-(4-methylpiperazin-1-yl)-2-hydroxy-propyl]-2,2-dimethyl-3H-benzofuran-4-carboxamide]
7 nM | CC[C@@H]1C(=O)N(C)c2cnc(Nc3ccc(C(=O)NC[C@H](O)CN4CCN(C)CC4)c4c3OC(C)(C)C4)nc2N1C1CCCC1 [Example 21, 7-[[(7R)-8-Cyclopentyl-7-ethyl-5-methyl-6-oxo-7H-pteridin-2-yl]amino]-N-[(2S)-3-(4-methylpiperazin-1-yl)-2-hydroxy-propyl]-2,2-dimethyl-3H-benzofuran-4-carboxamide]
2 nM | CC[C@@H]1C(=O)N(C)c2cnc(Nc3ccc(C(=O)NC4CCN(C)CC4)c4c3OCC4)nc2N1C(C)C [Example 22, 7-[[(7R)-7-Ethyl-8-isopropyl-5-methyl-6-oxo-7H-pteridin-2-yl]amino]-N-(1-methyl-4-piperidyl)-2,3-dihydrobenzofuran-4-carboxamide]
2 nM | CC[C@@H]1C(=O)N(C)c2cnc(Nc3ccc(C(=O)N[C@H]4C[C@@H]5CN(C)C[C@@H]5C4)c4c3OCC4)nc2N1C(C)C [Example 24, (cis-endo)-N-[2-Methyl-3,3a,4,5,6,6a-hexahydro-1H-cyclopenta[c]pyrrol-5-yl]-7-[[(7R)-7-ethyl-8-isopropyl-5-methyl-6-oxo-7H-pteridin-2-yl]amino]-2,3-dihydrobenzofuran-4-carboxamide]
3 nM | CC[C@@H]1C(=O)N(C)c2cnc(Nc3ccc(C(=O)NC[C@@H](O)CN4CCN(C)CC4)c4c3OCC4)nc2N1C1CCCC1 [Example 25, 7-[[(7R)-8-Cyclopentyl-7-ethyl-5-methyl-6-oxo-7H-pteridin-2-yl]amino]-N-[(2R)-2-hydroxy-3-(4-methylpiperazin-1-yl)propyl]-2,3-dihydrobenzofuran-4-carboxamide]

SMILES | IC50
CC[C@@H]1C(=O)N(C)c2cnc(Nc3ccc(C(=O)N[C@@H]4C[C@@H](OC(C)=O)[C@H](N(C)C)C[C@H]4OC(C)=O)c4c3OCC4)nc2N1C1CCCC1 [Example 3, [(1R,2R,4R,5R)-4-Acetoxy-2-[[7-[[(7R)-8-cyclopentyl-7-ethyl-5-methyl-6-oxo-7H-pteridin-2-yl]amino]-2,3-dihydrobenzofuran-4-carbonyl]amino]-5-dimethylamino-cyclohexyl]acetate] | 7 nM
